Measured values as given in patent US6339070B1, “Gene construct encoding a heterologous prodrug-activating enzyme and a cell targeting moiety” (Zeneca Limited, priority 1997, dated 2002).

B1: (A5B7 Fab-CPG2)2 fusion protein (other)
heavy: EVKLVESGGGLVQPGGSLRLSCATSGFTFTDYYMNWVRQPPGKALEWLGFIGNKANGYTTEYSASVKGRFTISRDKSQSILYLQMNTLRAEDSATYYCTRDRGLRFYFDYWGQGTTLTVSSASTKGPSVFPLAPCSRSTSESTAALGCLVKDYFPEPVTVSWNSGALTSGVHTFPAVLQSSGLYSLSSVVTVPSSNFGTQTYTCNVDHKPSNTKVDKTVGGGGSGGGGSGGGGSQKRDNVLFQAATDEQPAVIKTLEKLVNIETGTGDAEGIAAAGNFLEAELKNLGFTVTRSKSAGLVVGDNIVGKIKGRGGKNLLLMSHMDTVYLKGILAKAPFRVEGDKAYGPGIADDKGGNAVILHTLKLLKEYGVRDYGTITVLFNTDEEKGSFGSRDLIQEEAKLADYVLSFEPTSAGDEKLSLGTSGIAYVQVQITGKASHAGAAPELGVNALVEASDLVLRTMNIDDKAKNLRFQWTIAKAGQVSNIIPASATLNADVRYARNEDFDAAMKTLEERAQQKKLPEADVKVIVTRGRPAFNAGEGGKKLVDKAVAYYKEAGGTLGVEERTGGGTDAAYAALSGKPVIESLGLPGFGYHSDKAEYVDISAIPRRLYMAARLIMDLGAGK
light: QTVLSQSPAILSASPGEKVTMTCRASSSVTYIHWYQQKPGSSPKSWIYATSNLASGVPARFSGSGSGTSYSLTISRVEAEDAATYYCQHWSSKPPTFGGGTKLEIKRTVAAPSVFIFPPSDEQLKSGTASVVCLLNNFYPREAKVQWKVDNALQSGNSQESVTEQDSKDSTYSLSSTLTLSKADYEKHKVYACEVTHQGLSSPVTKSFNRGEC
notes: Two Fab-CPG2 units dimerise non-covalently through CPG2 (about 180 kDa); Tested as cell culture supernatant (COS-7 or recombinant Colo320DM / LoVo cells); also called (A5B7-CPG2 R6)2 fusion protein; (A5B7-CPG2)2 fusion protein

Columns and labels:
[1] = test system: non-transfected LoVo cells; experiment: In vitro prodrug killing, non-transfected LoVo cells; assay type: cell-based
[2] = test system: established LoVo tumours produced from non-transfected parental LoVo cells; experiment: Anti-tumour activity, fusion gene vector injected intra-tumourally into established LoVo tumours, then PGP; assay type: in vivo, athymic nude mice; conditions: PGP after 1-3 days, vs controls
Procedure: (§1) Thus non-transfected LoVo cells are injected into athymic nude mice (1×10^7 tumour cells per mouse) and once the tumours are 5-7 mm in diameter the vector containing the antibody-enzyme fusion protein gene is injected intra-tumourally. After 1-3 days to allow the antibody-enzyme fusion protein to be expressed by, and bind to, the LoVo tumour cells, the PGP prodrug is administered as described above.

[3] = test system: HCT116 cells transfected with the antibody-CPG2 fusion protein gene; assay type: cell-based
[4] = test system: LoVo cells transfected with an antibody-CPG2 fusion protein gene; experiment: In vitro prodrug killing, LoVo cells transfected with antibody-CPG2 fusion protein gene; assay type: cell-based
[5] = test system: LoVo tumours established from recombinant LoVo cells or recombinant Lovo/Parental LoVo cell mixes; experiment: Anti-tumour activity in LoVo tumours expressing the antibody-CPG2 fusion protein; assay type: in vivo, athymic nude mice
Procedure: (§2) Recombinant LoVo (A5B7-CPG2)2 fusion protein expressing tumour cells or mixes of recombinant and parental LoVo cells were injected subcutaneously into athymic nude mice as described in Example 9.
(§3) When the tumours are 5-7 mm in diameter the PGP prodrug is administered i.p. to the mice (3 doses in DMSO/0.15 M sodium bicarbonate buffer at hourly intervals over 2 h in dose ranges of 40-80 mg kg^−1).
(§4) Anti-tumour effects are judged by measuring the length of the tumours in two directions and calculating the tumour volume using the formula
(§5) where D is the larger diameter and d is the smaller diameter of the tumour. Tumour volume may be expressed relative to the tumour volume at the time the PGP prodrug is administered or alternatively the median tumouT volumes may be calculated. The anti-tumour activity is compared to control groups receiving either transfected or non-transfected tumour cells and buffer without PGP prodrug.

[6] = test system: non-transfected HCT116 cells; assay type: cell-based; conditions: read-out: IC50 (concentration required to inhibit cell growth by 50%)
[7] = test system: HCT116 tumours established from non-transfected cells; experiment: Anti-tumour activity in HCT116 tumours from non-transfected cells; assay type: in vivo, athymic nude mice; conditions: PGP i.p., 3 doses at hourly intervals, 5-25 mg kg^-1
Procedure: (§6) HCT116 tumour cells transfected with the antibody-CPG2 fusion protein gene or control non-transfected HCT116 tumour cells are injected subcutaneously into athymic nude mice (10^7 tumour cells per mouse). When the turnours are 5-7 mm in diameter the PGP prodrug is administered i.p. to the mice (3 doses at hourly intervals over 2 h in dose ranges of 5-25 mg kg^−1). The anti-tumour effects are judged by measuring the length of the tumours in two directions and calculating the tumour volume using the formula: […]
(§7) where D is the larger diameter and d is the smaller diameter of the tumour.
(§8) Tumour volume is expressed relative to the tumour volume at the time the PGP prodrug is administered. The anti-tumour activity is compared to a control group receiving either transfected or non-transfected tumour cells and PBS ([…], 3.4 mM KCl, 12 mM Na2HPO4 and 1.8 mM KH2PO4, pH 7.2) instead of the PGP prodrug.

[8] = test system: LoVo tumours established from non-transfected cells; experiment: Anti-tumour activity in LoVo tumours from non-transfected cells; assay type: in vivo, athymic nude mice; conditions: PGP i.p., 3 doses at hourly intervals, 40-80 mg kg^-1
Procedure: as §2, §3, §4, §5

[9] = test system: established HCT116 tumours produced from non-transfected HCT116 cells; experiment: Anti-tumour activity, fusion gene vector injected intra-tumourally into established HCT116 tumours, then PGP; assay type: in vivo, athymic nude mice; conditions: PGP after 1-3 days, vs PBS
Procedure: as §1, with “HCT116” for “LoVo”, “by” for “by,”, “to” for “to,”

[10] = test system: HCT116 tumours established from transfected HCT116 cells; experiment: Anti-tumour activity in HCT116 tumours from transfected cells; assay type: in vivo, athymic nude mice; conditions: PGP i.p., 3 doses at hourly intervals, 5-25 mg kg^-1, vs PBS
Procedure: as §6, §7, §8

[11] = target: T1, CEA on LoVo colorectal tumour cells (CEA positive) (human, UniProt P06731 35-685, GPI anchor on the C-terminal residue; heavily N-glycosylated on cells); experiment: cell based ELISA on fixed cells, anti-human kappa HRP detection, OD 490 nm
T1 construct: also called CEA positive LoVo cells; LoVo, CEA bearing, tumour cells
T1 sequence: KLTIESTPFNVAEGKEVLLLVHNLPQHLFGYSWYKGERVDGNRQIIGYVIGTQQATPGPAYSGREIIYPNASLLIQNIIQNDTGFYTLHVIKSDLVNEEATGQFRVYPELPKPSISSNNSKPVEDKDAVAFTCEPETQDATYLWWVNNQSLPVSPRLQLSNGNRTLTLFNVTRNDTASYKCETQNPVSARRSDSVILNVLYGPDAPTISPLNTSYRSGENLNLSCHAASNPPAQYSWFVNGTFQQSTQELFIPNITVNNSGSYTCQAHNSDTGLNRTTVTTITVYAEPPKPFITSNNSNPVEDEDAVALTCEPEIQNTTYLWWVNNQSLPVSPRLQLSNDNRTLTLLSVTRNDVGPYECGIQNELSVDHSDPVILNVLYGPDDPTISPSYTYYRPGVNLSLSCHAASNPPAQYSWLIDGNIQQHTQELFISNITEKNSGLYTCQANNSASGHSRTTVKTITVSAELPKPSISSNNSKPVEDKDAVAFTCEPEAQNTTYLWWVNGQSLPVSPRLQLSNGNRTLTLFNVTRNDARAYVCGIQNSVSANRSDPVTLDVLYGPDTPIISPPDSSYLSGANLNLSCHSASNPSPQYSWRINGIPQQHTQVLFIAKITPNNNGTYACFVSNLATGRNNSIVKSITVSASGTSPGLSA
Procedure: 100 µl of 6% formaldehyde was diluted in DMEM and left for 1 hour at 4°. Plates were centrifuged and washed 3 times in PBS containing 0.05% Tween™ by immersion soaking (first two washes for 2 minutes and the final wash for 5 minutes).
Colour was allowed to develop for about 5 min, stopped with 75 μl per well of 2M H_2SO_4 and OD read at 490 nm.

[12] = target: T2, human carcinoembryonic antigen (CEA) (human, UniProt P06731 35-685, limits assumed); experiment: CEA ELISA, COS-7 supernatant, anti-human kappa or anti-CPG2 reporter antibody
T2 construct: CEA as coated on the ELISA plate; also called Carcinoma Embryonic Antigen
T2 sequence (looked up): T1 sequence
Procedure: For the CEA ELISA each well of a 96 well immunoplate (NUNC MAXISORB™) was coated with 50 ng CEA in 50 mM carbonate/bicarbonate coating buffer pH9.6 (buffer capsules—Sigma C3041) and incubated at 4° overnight. The plate was washed three times with PBS-TWEEN™ (PBS+ 0.05% TWEEN™ 20) and then blocked 150 μl per well of 1% BSA in PBS-TWEEN™ for 1 hour at room temperature. The plate was washed three times with PBS-TWEEN™, 100 μl of test sample added per well and incubated at room temperature for 2 hours. […] The plate was washed three times with PBS-TWEEN™ and then once more with PBS. To detect binding, add 100 μl per well of developing solution (one capsule of phosphate-citrate buffer—Sigma P4922—dissolved in 100 ml H_2O to which is added one 30 mg tablet o-phenylenediamine dihydrochloride—Sigma P8412) and incubated for up to 15 minutes. The reaction was stopped by adding 75 μl 2M H_2SO_4, and absorbance read at 490 nm.
The CEA ELISA using an anti CPG2 reporter antibody was essentially as above but instead of HRPO-labelled goat anti-human kappa antibody an 1/1000 dil. of a rabbit anti-CPG2 polyclonal sera was added, in 1% BSA in PBS-TWEEN™ and incubated at room temperature on a rocking platform for at 2 hours. The plate was washed three times with PBS-TWEEN™. […] The reaction was stopped by adding 75 μl 2M H_2SO_4, and absorbance read at 490 nm.

| Molecule | conversion of prodrug into active drug by cells [1] | anti-tumour activity [2] | sensitivity of transfected compared to non-transfected HCT116 cells in terms of cell killing [3] | IC50 ([3]; read-out: IC50 (concentration required to inhibit cell growth by 50%)) [µM] | conversion of prodrug into active drug by cells ([4]; transfected LoVo cells) | sensitivity of transfected compared to non-transfected LoVo cells in terms of cell killing ([4]; transfected vs non-transfected LoVo) | tumour growth delay ([5]; 60 mg/kg doses of prodrug, FIG. 5) [days] | median tumour volume relative to initial size ([5]; 60 mg/kg doses of prodrug, day 16 post-dose, FIG. 5) [times their initial size] | anti-tumour effect ([5]; PGP i.p., 3 doses at hourly intervals, 40-80 mg kg^-1, vs controls) | IC50 [6] [µM] | anti-tumour activity [7] | anti-tumour activity [8] | anti-tumour activity [9] | anti-tumour effect [10] | binding result [11] | binding result [12] |
| --- | --- | --- | --- | --- | --- | --- | --- | --- | --- | --- | --- | --- | --- | --- | --- | --- |
| O=C(O)CC[C@H](NC(=O)Oc1ccc(N(CCCl)CCCl)cc1)C(=O)O [PGP, N-(4-[N,N-bis(2-chloroethyl)amino]-phenoxycarbonyl)-L-glutamic acid] | unable to convert the prodrug | significant anti-tumour activity | over 100 fold | ~1 | can convert the PGP prodrug into the more potent active drug | over 100 fold | ≥ 11 | 3 | significant anti-tumour effect | ~200 | no significant anti-tumour activity | no significant anti-tumour activity | significant anti-tumour activity | significant anti-tumour effect |  |  |
| B1 |  |  |  |  |  |  |  |  |  |  |  |  |  |  | binds | binds |
